Test results taken from ChEMBL document CHEMBL1949630, “Discovery of benzodihydroisofurans as novel, potent, bioavailable and brain-penetrant prolylcarboxypeptidase inhibitors” (Bioorg Med Chem Lett, 2012).

Legend:
[1] = target: T1, Lysosomal Pro-X carboxypeptidase (Mus musculus, UniProt Q7TMR0); test: Inhibition of PrCP in mouse plasma assessed as angiotensin 3 cleavage by whole serum shift assay
T1 sequence (Q7TMR0 whole entry): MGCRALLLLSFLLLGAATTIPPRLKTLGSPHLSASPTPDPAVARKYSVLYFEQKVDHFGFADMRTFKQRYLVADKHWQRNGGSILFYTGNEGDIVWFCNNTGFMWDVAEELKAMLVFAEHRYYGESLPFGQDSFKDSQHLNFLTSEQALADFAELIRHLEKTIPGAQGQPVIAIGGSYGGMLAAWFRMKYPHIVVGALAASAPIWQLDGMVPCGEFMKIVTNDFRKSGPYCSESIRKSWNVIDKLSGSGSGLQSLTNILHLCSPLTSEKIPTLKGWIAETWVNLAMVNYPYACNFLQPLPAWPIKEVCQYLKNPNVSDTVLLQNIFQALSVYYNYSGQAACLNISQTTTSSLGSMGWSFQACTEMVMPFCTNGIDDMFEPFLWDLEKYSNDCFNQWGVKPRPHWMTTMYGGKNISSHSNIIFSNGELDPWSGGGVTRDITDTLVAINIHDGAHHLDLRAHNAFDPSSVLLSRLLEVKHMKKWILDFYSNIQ

Mus musculus [2] = test: Dose normalized AUC in C57BL/6 mouse at 2 mg/kg by LC/MS/MS analysis; format: ADME, organism-based; parameters: dose 2 mg/kg; settings: in vivo
[3] = Oral bioavailability in C57BL/6 mouse at 2 mg/kg by LC/MS/MS analysis; format: ADME, organism-based; settings: in vivo
[4] = Clearance in C57BL/6 mouse at 1 mg/kg, iv and 2 mg/kg, po by LC/MS/MS analysis; format: ADME, organism-based; settings: in vivo
[5] = Half life in C57BL/6 mouse at 1 mg/kg, iv and 2 mg/kg, po by LC/MS/MS analysis; format: ADME, organism-based; settings: in vivo
[6] = Volume of distribution at steady state in C57BL/6 mouse at 1 mg/kg, iv and 2 mg/kg, po by LC/MS/MS analysis; format: ADME, organism-based; settings: in vivo, read-out: Vdss
[7] = target: T1, Lysosomal Pro-X carboxypeptidase; test: Inhibition of mouse PrCP
Mus musculus [8] = test: Dose normalized AUC in C57BL/6 mouse at 1 mg/kg by LC/MS/MS analysis; format: ADME, organism-based; parameters: dose 1 mg/kg; settings: in vivo
[9] = Half life in C57BL/6 mouse at 0.5 mg/kg, iv and 1 mg/kg, po by LC/MS/MS analysis; format: ADME, organism-based; settings: in vivo
[10] = Volume of distribution at steady state in C57BL/6 mouse at 0.5 mg/kg, iv and 1 mg/kg, po by LC/MS/MS analysis; format: ADME, organism-based; settings: in vivo, read-out: Vdss
[11] = Oral bioavailability in C57BL/6 mouse at 1 mg/kg by LC/MS/MS analysis; format: ADME, organism-based; settings: in vivo
[12] = Clearance in C57BL/6 mouse at 0.5 mg/kg, iv and 1 mg/kg, po by LC/MS/MS analysis; format: ADME, organism-based; settings: in vivo
[13] = Fraction unbound in mouse plasma; format: ADME, cell-free
[14] = Fraction unbound in human plasma; format: ADME, cell-free

FC(F)(F)Oc1ccc(CN2CCC3(CC2)OC(c2cc(Cl)cc(Cl)c2)c2ccccc23)cc1 (centres undefined)
IC50 [1]: > 1000 nM | AUC/dose (Mus musculus [2]): 2.16 µM·kg·h/mg | bioavailability [3]: 53% | clearance [4]: 8.1 mL/min/kg | half-life [5]: 7 h | Vd [6]: 4.4 L/kg | IC50 [7]: 1 nM

Fc1ccc(CN2CCC3(CC2)OC(c2cc(Cl)cc(Cl)c2)c2ccccc23)nc1 (centres undefined)
AUC/dose (Mus musculus [8]): 1.36 µM·kg·h/mg | half-life [9]: 7 h | Vd [10]: 16 L/kg | bioavailability [11]: 22% | IC50 [7]: 2.5 nM | clearance [12]: 28 mL/min/kg

FC(F)(F)Oc1ccc(CN2CCC3(CC2)OC(c2cc(Cl)cc(Cl)c2)c2cccnc23)cc1 (centres undefined)
AUC/dose (Mus musculus [8]): 0.26 µM·kg·h/mg | half-life [9]: 4 h | Vd [10]: 8.2 L/kg | bioavailability [11]: 22% | IC50 [7]: 1.4 nM | clearance [12]: 28 mL/min/kg

CC(c1ccc(F)cn1)N1CCC2(CC1)OC(c1cc(Cl)cc(Cl)c1)c1cccnc12 (centres undefined)
IC50 [1]: 14 nM | AUC/dose (Mus musculus [8]): 0.028 µM·kg·h/mg | half-life [9]: 4 h | Vd [10]: 19 L/kg | bioavailability [11]: 5.4% | IC50 [7]: 1.1 nM | clearance [12]: 69 mL/min/kg

Clc1cc(Cl)cc(C2OC3(CCN(Cc4cc5ccccc5o4)CC3)c3ccccc32)c1 (racemic)
IC50 [1]: > 1000 nM | IC50 [7]: 2.5 nM

FC(F)(F)c1ccc(CN2CCC3(CC2)OC(c2cc(Cl)cc(Cl)c2)c2ccccc23)nc1 (racemic)
IC50 [1]: 144 nM | AUC/dose (Mus musculus [8]): 0.11 µM·kg·h/mg | half-life [9]: 4.1 h | Vd [10]: 11 L/kg | bioavailability [11]: 16% | IC50 [7]: 0.71 nM | clearance [12]: 51 mL/min/kg

Clc1cc(Cl)cc(C2OC3(CCN(Cc4ccc(N5CCCC5)cn4)CC3)c3ccccc32)c1 (racemic)
AUC/dose (Mus musculus [8]): 1.22 µM·kg·h/mg | half-life [9]: 8.5 h | Vd [10]: 4.7 L/kg | bioavailability [11]: 23% | IC50 [7]: 17 nM | clearance [12]: 7.6 mL/min/kg

FC(F)(F)Oc1ccc(CN2CCC3(CC2)OC(c2cc(Cl)cc(Cl)c2)c2ccncc23)cc1 (racemic)
IC50 [1]: 380 nM | AUC/dose (Mus musculus [8]): 0.28 µM·kg·h/mg | half-life [9]: 6.1 h | Vd [10]: 15 L/kg | bioavailability [11]: 29% | IC50 [7]: 1.3 nM | clearance [12]: 35 mL/min/kg

FC(F)(F)Oc1ccc(CN2CCC3(CC2)OC(c2cc(Cl)cc(Cl)c2)c2cnccc23)cc1 (racemic)
IC50 [1]: 427 nM | IC50 [7]: 5.2 nM

FC(F)(F)Oc1ccc(CN2CCC3(CC2)OC(c2ccc(Cl)cn2)c2ccccc23)cc1 (racemic)
AUC/dose (Mus musculus [8]): 0.46 µM·kg·h/mg | half-life [9]: 6.5 h | Vd [10]: 14 L/kg | bioavailability [11]: 35% | IC50 [7]: 25 nM | clearance [12]: 30 mL/min/kg

FC(F)(F)Oc1ccc(CN2CCC3(CC2)OC(c2ccccn2)c2ccccc23)cc1 (racemic)
AUC/dose (Mus musculus [8]): 0.14 µM·kg·h/mg | half-life [9]: 5 h | Vd [10]: 26 L/kg | bioavailability [11]: 25% | IC50 [7]: 20 nM | clearance [12]: 70 mL/min/kg

FC(F)(F)Oc1ccc(CN2CCC3(CC2)OC(c2cc(Cl)ccn2)c2cccnc23)cc1 (racemic)
AUC/dose (Mus musculus [2]): 0.23 µM·kg·h/mg | bioavailability [3]: 47% | clearance [4]: 74 mL/min/kg | half-life [5]: 5 h | Vd [6]: 28 L/kg | IC50 [7]: 5.8 nM

CC(c1ccc(F)cn1)N1CCC2(CC1)OC(c1cc(Cl)ccn1)c1ccccc12 (racemic)
AUC/dose (Mus musculus [8]): 0.032 µM·kg·h/mg | half-life [9]: 1.7 h | Vd [10]: 13 L/kg | bioavailability [11]: 7.8% | clearance [12]: 96 mL/min/kg

O=S(=O)(c1ccc(OC(F)(F)F)cc1)N1CCC2(CC1)OC(c1cc(Cl)cc(Cl)c1)c1cccnc12 (racemic)
IC50 [1]: 712 nM | AUC/dose (Mus musculus [8]): 0.33 µM·kg·h/mg | half-life [9]: 4.8 h | Vd [10]: 9.5 L/kg | bioavailability [11]: 36% | fraction unbound [13]: < 0.0006 | fraction unbound [14]: < 0.0006 | IC50 [7]: 1.8 nM | clearance [12]: 33 mL/min/kg

CC(c1ccc(F)cn1)N1CCC2(CC1)OC(c1cc(Cl)ccn1)c1cccnc12 (racemic)
IC50 [1]: 19 nM | AUC/dose (Mus musculus [8]): 0.008 µM·kg·h/mg | half-life [9]: 2.1 h | Vd [10]: 17 L/kg | bioavailability [11]: 2.6% | IC50 [7]: 10.6 nM | clearance [12]: 127 mL/min/kg

CC(c1ccc(F)cn1)N1CCC2(CC1)OC(c1cc(Cl)cc(Cl)c1)c1ccccc12 (racemic)
IC50 [1]: 90 nM | AUC/dose (Mus musculus [8]): 0.27 µM·kg·h/mg | half-life [9]: 5.9 h | Vd [10]: 14 L/kg | bioavailability [11]: 22% | IC50 [7]: 0.31 nM | clearance [12]: 31 mL/min/kg

OCC(c1ccccc1)N1CCC2(CC1)OC(c1cc(Cl)cc(Cl)c1)c1cccnc12 (racemic)
AUC/dose (Mus musculus [8]): 0.05 µM·kg·h/mg | half-life [9]: 2.3 h | Vd [10]: 20 L/kg | bioavailability [11]: 17% | IC50 [7]: 110 nM | clearance [12]: 126 mL/min/kg

CC(C)(c1ccc(OC(F)(F)F)cc1)N1CCC2(CC1)OC(c1cc(Cl)ccn1)c1cccnc12 (racemic)
IC50 [1]: 351 nM | AUC/dose (Mus musculus [8]): 0.41 µM·kg·h/mg | half-life [9]: > 8 h | bioavailability [11]: 41% | IC50 [7]: 0.39 nM

CC(C)(O)C(c1ccccc1)N1CCC2(CC1)OC(c1cc(Cl)cc(Cl)c1)c1cccnc12 (racemic)
AUC/dose (Mus musculus [8]): 0.11 µM·kg·h/mg | half-life [9]: 3.4 h | Vd [10]: 7.3 L/kg | bioavailability [11]: 16% | IC50 [7]: 5.2 nM | clearance [12]: 38 mL/min/kg

O=S(=O)(c1ccc(C(F)(F)F)cn1)N1CCC2(CC1)OC(c1cc(Cl)cc[n+]1[O-])c1ccccc12 (racemic)
AUC/dose (Mus musculus [8]): 0.1 µM·kg·h/mg | half-life [9]: 2.1 h | Vd [10]: 12 L/kg | bioavailability [11]: 23% | fraction unbound [13]: 0.025 | fraction unbound [14]: 0.05 | IC50 [7]: 0.11 nM | clearance [12]: 87 mL/min/kg

[O-][n+]1ccc(Cl)cc1C1OC2(CCN(Cc3ccc(OC(F)(F)F)cc3)CC2)c2ccccc21 (single isomer, unassigned)
AUC/dose (Mus musculus [2]): 0.43 µM·kg·h/mg | bioavailability [3]: 72% | clearance [4]: 57 mL/min/kg | half-life [5]: 5.6 h | fraction unbound [13]: 0.007 | Vd [6]: 27 L/kg | fraction unbound [14]: 0.006 | IC50 [7]: 0.38 nM
